Experimental data published in ChEMBL document CHEMBL1201862, “PubChem BioAssay data set” (2004).
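The compound was tested at five concentrations on cells cultured in 96-well plates, with a 48-hour exposure period. GI50 = concentration required for 50% inhibition of growth.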 Activity calls are given as the source filed them. Rule as the data show it: active = GI50 up to about 1.1 µM and inactive = higher.

Tests used:
Experiment in all cases: DTP human tumour cell line panel, 48 h
[1] = tested on: Hs-578T
[2] = tested on: HCT-15
[3] = tested on: K562
[4] = tested on: SF-268
[5] = tested on: CAKI-1
[6] = tested on: OVCAR-4
[7] = tested on: MDA-MB-435
[8] = tested on: SR
[9] = tested on: OVCAR-8
[10] = tested on: SNB-19
[11] = tested on: NCI-H460
[12] = tested on: SK-OV-3
[13] = tested on: LOX IMVI
[14] = tested on: IGROV-1
[15] = tested on: SF-539
[16] = tested on: SW-620
[17] = tested on: BT-549

Measured: GI50

Cc1cccc(/C=N\NC(=S)N2CCCCC2)n1
inactive: [1] 26.5 µM
0.0371 µM: [2]
active: [3] < 0.01 µM | [4] 0.0451 µM | [5] 0.126 µM | [6] < 0.01 µM | [7] 0.56 µM | [8] 0.019 µM | [9] 0.036 µM | [10] 0.665 µM | [11] 0.22 µM | [12] 0.685 µM | [13] 0.0681 µM | [14] < 0.01 µM | [15] 0.156 µM | [16] 0.334 µM

COc1ccc(N[C@H]([C@@H](c2ccccc2)[S+]([O-])c2ccc(C)cc2)C(F)(F)F)cc1 (stereo not given in full)
30 µM: [2]
inactive: [3] 28.4 µM | [5] 46.7 µM | [6] 26 µM | [7] 41.1 µM | [8] > 100 µM | [9] 80.9 µM | [10] 33.1 µM | [17] 38.6 µM | [11] 50.1 µM | [12] > 100 µM | [13] 53.1 µM | [14] 48.8 µM | [15] 22.5 µM | [16] 61.1 µM

O=c1cc(-c2ccncc2)[nH]c2cc3c(cc12)OCO3
> 100 µM: [2]
inactive: [1] > 100 µM | [4] > 100 µM | [6] > 100 µM | [7] > 100 µM | [9] > 100 µM | [10] > 100 µM | [11] > 100 µM | [12] > 100 µM | [14] > 100 µM | [15] > 100 µM | [16] > 100 µM

CC1C2=C(CCCC2=O)N(c2ccc(Cl)cc2)C2=C1C(=O)CCC2
70 µM: [2]
inactive: [1] 50.1 µM | [3] 29.9 µM | [4] > 100 µM | [5] > 100 µM | [6] 39.1 µM | [8] 39.2 µM | [9] > 100 µM | [10] > 100 µM | [17] 73.6 µM | [11] 60.5 µM | [12] > 100 µM | [13] 68.5 µM | [14] > 100 µM | [15] > 100 µM | [16] > 100 µM

Cc1ccc(C(=O)O)c(/C=C2\Cc3cc(C)cc(C)c3C2=O)c1
inactive: [1] 93.8 µM | [3] 52.4 µM | [4] > 100 µM | [5] > 100 µM | [8] 46 µM | [9] 82.2 µM | [10] > 100 µM | [17] > 100 µM | [11] 49.2 µM | [13] 72.3 µM | [14] > 100 µM | [15] 75.9 µM | [16] > 100 µM
53.1 µM: [2]

Cc1ccc(S(=O)(=O)NC(=O)NC(C(=O)O)C(C)O)cc1 (stereo not given)
> 100 µM: [2]
inactive: [1] > 100 µM | [3] > 100 µM | [4] > 100 µM | [6] > 100 µM | [8] > 100 µM | [9] > 100 µM | [10] > 100 µM | [17] > 100 µM | [11] > 100 µM | [12] > 100 µM | [13] > 100 µM | [14] > 100 µM | [15] > 100 µM | [16] > 100 µM

COc1cc(C=O)cc(/C=N/c2ccccn2)c1O
inactive: [1] 4.63 µM | [3] 61.1 µM | [4] 3.37 µM | [5] 2.94 µM | [6] > 100 µM | [7] 9.29 µM | [8] 2.18 µM | [9] 2.78 µM | [10] 17.4 µM | [11] 19.5 µM | [12] 4.98 µM | [13] 14.1 µM | [15] 3.01 µM | [16] 31.6 µM
29 µM: [2]

COC(=O)[C@H](Cc1ccccc1)NC(=O)N1CCCN(C(=O)N[C@@H](Cc2ccccc2)C(=O)OC)CCCN(C(=O)N[C@@H](Cc2ccccc2)C(=O)OC)CCC1
inactive: [1] 20.7 µM | [3] 61.1 µM | [4] 17.5 µM | [5] 25.5 µM | [6] 20.7 µM | [7] 20.6 µM | [9] 20.7 µM | [10] 27.7 µM | [17] 31.1 µM | [11] 27.7 µM | [12] 22.8 µM | [13] 15.3 µM | [14] 16.4 µM | [16] 19.5 µM
27.8 µM: [2]

CC(C)(C)[Si](C)(C)OCC1OC(n2cnc3c(NC(=O)c4ccccc4)ncnc32)CC1O (stereo not given)
51.1 µM: [2]
inactive: [1] 19.2 µM | [3] 23.4 µM | [4] 64.4 µM | [5] 49 µM | [6] 24 µM | [7] 22.1 µM | [8] 25.1 µM | [9] 39.3 µM | [10] 28.6 µM | [11] 32.7 µM | [12] 23.2 µM | [13] 18.7 µM | [14] 33.7 µM | [15] 23.3 µM | [16] 40.9 µM

FC(F)(Sc1ccccc1)c1nc2ccccc2o1
inactive: [3] 27 µM | [4] > 100 µM | [5] > 100 µM | [6] 97.1 µM | [7] 95.3 µM | [8] 22 µM | [9] 83.4 µM | [17] 55.5 µM | [11] 55.5 µM | [12] 20.8 µM | [14] > 100 µM | [15] 63.8 µM | [16] 61.1 µM
22 µM: [2]

O=C1C2=Cc3ccccc3OC2(O)Oc2cc(O)cc(O)c21 (stereo not given)
inactive: [3] 81.7 µM | [4] > 100 µM | [5] > 100 µM | [6] 92.3 µM | [7] > 100 µM | [9] > 100 µM | [17] > 100 µM | [11] 41.5 µM | [12] > 100 µM | [13] > 100 µM | [14] > 100 µM | [15] > 100 µM | [16] > 100 µM
> 10 µM: [2]

COc1c2cc([N+](=O)[O-])cc1CN(C(=O)C(F)(F)F)CCOCCN(C(=O)C(F)(F)F)C2
> 100 µM: [2]
inactive: [1] > 100 µM | [4] > 100 µM | [5] > 100 µM | [6] > 100 µM | [7] > 100 µM | [9] > 100 µM | [10] > 100 µM | [17] 70.6 µM | [11] > 100 µM | [12] > 100 µM | [13] > 100 µM | [14] > 100 µM | [15] > 100 µM | [16] > 100 µM

CSC1=N/C(=C\c2ccco2)C(=O)N1CN1CCCCC1
inactive: [1] > 100 µM | [3] 59.6 µM | [4] 92.3 µM | [7] > 100 µM | [8] > 100 µM | [9] 75.9 µM | [10] 87.3 µM | [12] > 100 µM | [13] 33.7 µM | [14] 89.9 µM | [16] 36.1 µM
38.4 µM: [2]

CCOC(OCC)N1C(=O)C2(C(OCC)OCC)CC3C(OC(=O)N3N)c3cccc1c32 (stereo not given)
inactive: [3] > 10 µM | [4] > 100 µM | [5] > 100 µM | [6] > 100 µM | [7] > 100 µM | [8] > 100 µM | [9] > 100 µM | [10] > 100 µM | [17] > 100 µM | [11] > 100 µM | [12] > 100 µM | [13] > 100 µM | [14] > 100 µM | [15] > 100 µM | [16] > 100 µM
> 100 µM: [2]
